Test results published in patent US20200240995A1, “KDAC VARIANTS AND USES THEREOF” (Max-Planck-Gesellschaft Zur Forderung Der Wissenschaften …, priority 2017, published 2020).

What was measured:
SirT2 = molecular target: T1, SirT2 (Homo sapiens, UniProt Q8IXJ6); experiment: FLuc K529ac-based KDAC assay, inhibition or activation of SirT2 deacetylation
T1 sequence (Q8IXJ6 56-356): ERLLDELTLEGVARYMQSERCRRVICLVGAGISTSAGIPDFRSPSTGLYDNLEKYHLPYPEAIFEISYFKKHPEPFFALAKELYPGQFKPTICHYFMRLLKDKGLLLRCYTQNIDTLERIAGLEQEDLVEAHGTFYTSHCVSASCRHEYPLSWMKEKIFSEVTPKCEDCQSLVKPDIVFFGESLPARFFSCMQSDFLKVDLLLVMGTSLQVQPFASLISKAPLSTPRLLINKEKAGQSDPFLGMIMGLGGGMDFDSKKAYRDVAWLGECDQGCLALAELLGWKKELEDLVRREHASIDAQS

KDACs = experiment: FLuc K529ac activation by different KDACs; assay type: biochemical; settings: purified FLuc K529ac
Protocol: FIG. 7: FLuc K529ac activation by different KDACs. Sirtuins were used at 20 μg/ml, while HDAC8 concentration was 10 mg/ml with tenfold higher FLuc K529ac. All error bars are standard deviations of triplicates.
It was tested whether purified FLuc K529ac can be used to quantify KDAC activity by incubating it with various different KDACs (FIG. 7). Prior to treatment with a KDAC the enzyme produced very little bioluminescence. After incubation with various KDACs the luminescence increased up to 130 fold.

Row | IC50 (SirT2) | Compound | Luminescence increase after incubation with various KDACs (KDACs)
1 | 5.5 µM | Oc1cc(O)cc(/C=C/c2ccc(O)c(O)c2)c1 [Compound 2, piceatannol] | 
2 |  | FLuc K529ac: Firefly luciferase with N(ε)-acetyl-lysine in place of K529, reporter substrate for KDACs | up to 130 fold
